pIC50: −log10 of the molar value.
How the values were obtained:
[1] = system: RS411 cells; assay: Cell Viability CTG Assay; format: cell-based; details: Homo sapiens, RS4-11, CellTiter Glo (CTG) cell viability, read-out: Average external-IC50
In short: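 RS411 cells (1000/well) exposed 1 day at 37 °C to compound, 11-point 3-fold dilution from 10 μM top, 0.2% DMSO final. Viability read by CellTiter-Glo luminescence; IC50 reported as letter bins.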

[2] = target: T1, HiBiT-tagged MDM2 (Homo sapiens, UniProt Q00987); assay: MDM2 HiBit HEK293T degradation; format: cell-based; details: HEK293T cells stably expressing C-terminally HiBiT-tagged MDM2; 4 h; read-out: MDM2 HiBit HEK293T degradation 4 h: Average external-Abs DC50
T1 construct: expressed in transfected cells
In short: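 Degradation was measured in HEK293T cells stably expressing C-terminally HiBiT-tagged MDM2, a pool selected with 1 microgram/ml puromycin. A MDM2 tool degrader and HaloPROTAC3 served as positive controls. Potency is reported as DC50 in letter bins.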

T1 sequence (Q00987 whole entry): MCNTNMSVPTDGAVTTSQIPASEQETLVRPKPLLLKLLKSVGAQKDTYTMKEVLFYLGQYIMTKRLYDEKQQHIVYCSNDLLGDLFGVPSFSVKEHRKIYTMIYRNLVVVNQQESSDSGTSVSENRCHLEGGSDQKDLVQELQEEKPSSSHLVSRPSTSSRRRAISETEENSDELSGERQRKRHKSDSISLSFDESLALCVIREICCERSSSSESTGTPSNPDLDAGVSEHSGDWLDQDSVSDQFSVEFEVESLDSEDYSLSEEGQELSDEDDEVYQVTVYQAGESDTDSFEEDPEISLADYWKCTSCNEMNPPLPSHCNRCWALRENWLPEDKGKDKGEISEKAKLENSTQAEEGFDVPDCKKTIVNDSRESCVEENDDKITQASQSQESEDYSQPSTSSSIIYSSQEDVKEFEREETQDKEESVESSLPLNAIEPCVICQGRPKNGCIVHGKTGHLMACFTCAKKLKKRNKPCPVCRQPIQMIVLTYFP

pIC50 [1]	DC50 [2] [nM]	SMILES
> 8.30	< 10	COc1cc2c(cc1OC(C)C)[C@H](c1ccc(Cl)cc1)N(c1ccc(N(C)C[C@H]3CC[C@H](N4CCN(c5ccc6c(c5)n(C)c(=O)n6C5CCC(=O)NC5=O)CC4)CC3)cc1)C(=O)C2 (stereo partly drawn) [I-71, 3-[5-[4-[4-[[4-[(1S)-1-(4-chlorophenyl)-7-isopropoxy-6-methoxy-3-oxo-1,4-dihydroisoquinolin-2-yl]-N-methyl-anilino]methyl]cyclohexyl]piperazin-1-yl]-3-methyl-2-oxo-benzimidazol-1-yl]piperidine-2,6-dione]
7.30 to 8.30	100 to 1000	O=C(O)Cn1c(=O)n(C2CCC(=O)NC2=O)c2ccc(C3CCN(C(=O)[C@H]4CC[C@H](NC(=O)[C@@H]5NC6(CCCCC6)[C@@]6(C(=O)Nc7cc(Cl)ccc76)[C@H]5c5cccc(Cl)c5F)CC4)CC3)cc21 (stereo partly drawn) [I-99]
7.30 to 8.30	< 10	Cn1c(=O)n(C2CCC(=O)NC2=O)c2ccc(C#CC3CCN(C[C@H]4CC[C@H](NC(=O)[C@@H]5NC6(CCC(C)(C)CC6)[C@@]6(C(=O)Nc7cc(Cl)ccc76)[C@H]5c5ccnc(Cl)c5F)CC4)C(=O)C3)cc21 (stereo partly drawn) [I-77]
> 8.30	< 10	Cn1c(=O)n(C2CCC(=O)NC2=O)c2ccc(CCN3CCN(CCCN4CCC(NC(=O)[C@@H]5NC6(CCC(C)(C)CC6)[C@@]6(C(=O)Nc7cc(Cl)ccc76)[C@H]5c5ccnc(Cl)c5F)CC4)CC3)cc21 (stereo partly drawn) [I-20]
> 8.30	< 10	Cn1c(=O)n(C2CCC(=O)NC2=O)c2ccc(CN3CC(OC4CCN(C[C@H]5CC[C@H](NC(=O)[C@@H]6NC7(CCCCC7)[C@@]7(C(=O)Nc8cc(Cl)ccc87)[C@H]6c6cccc(Cl)c6F)CC5)CC4)C3)cc21 (stereo partly drawn) [I-47, (3′R,4′S,5′S)-6″-chloro-4′-(3-chloro-2-fluorophenyl)-N-((1r,4S)-4-((4-((1-((1-(2,6-dioxopiperidin-3-yl)-3-methyl-2-oxo-2,3-dihydro-1H-benzo[d]imidazol-5-yl)methyl)azetidin-3-yl)oxy)piperidin-1-yl)methyl)cyclohexyl)-2″-oxodispiro[cyclohexane-1,2′-pyrrolidine-3′,3″-indoline]-5′-carboxamide]
> 8.30	< 10	O=C1CCN(c2cnc3cc(C4CCN(C(=O)[C@H]5CC[C@H](NC(=O)[C@@H]6NC7(CCCCC7)[C@@]7(C(=O)Nc8cc(Cl)ccc87)[C@H]6c6cccc(Cl)c6F)CC5)CC4)ccn23)C(=O)N1 [I-42]
> 8.30	< 10	Cn1c(=O)n([C@H]2CCC(=O)NC2=O)c2ccc(C3CCN(C(=O)[C@H]4CC[C@H](NC(=O)[C@@H]5NC6(CCCCC6)[C@@]6(C(=O)Nc7cc(Cl)ccc76)[C@H]5c5cccc(Cl)c5F)CC4)CC3)cc21 (single isomer, unassigned) [I-103]
6.30 to 7.30	10 to 100	COc1cc2c(cc1OC(C)C)[C@H](c1ccc(Cl)cc1)N(c1ccc(N(C)CCC3CCN(CCCCC#Cc4ccn5c(N6CCC(=O)NC6=O)cnc5c4)CC3)cc1)C(=O)C2 [I-51]
> 8.30	< 10	Cn1c(=O)n(C2CCC(=O)NC2=O)c2ccc(CC[C@@H]3CN(C[C@H]4CC[C@H](NC(=O)[C@@H]5NC6(CCCCC6)[C@@]6(C(=O)Nc7cc(Cl)ccc76)[C@H]5c5cccc(Cl)c5F)CC4)CCO3)cc21 (stereo partly drawn) [I-21]
7.30 to 8.30	< 10	Cn1c(=O)n(C2CCC(=O)NC2=O)c2ccc(CCCN3CCN(C[C@H]4CC[C@H](NC(=O)[C@@H]5NC6(CCCCC6)[C@@]6(C(=O)Nc7cc(Cl)ccc76)[C@H]5c5cccc(Cl)c5F)CC4)C(=O)C3)cc21 (stereo partly drawn) [I-54]

Second part, the compound before the results:

SMILES	pIC50 [1]	DC50 [2] [nM]
Cn1c(=O)n(C2CCC(=O)NC2=O)c2ccc(C3CCN(S(=O)(=O)NC(=O)[C@H]4CC[C@H](NC(=O)[C@@H]5NC6(CCCCC6)[C@@]6(C(=O)Nc7cc(Cl)ccc76)[C@H]5c5cccc(Cl)c5F)CC4)CC3)cc21 (stereo partly drawn) [I-80]	> 8.30	< 10
Cn1c(=O)n(C2CCC(=O)NC2=O)c2ccc(CC[C@H]3CN(C[C@H]4CC[C@H](NC(=O)[C@@H]5NC6(CCCCC6)[C@@]6(C(=O)Nc7cc(Cl)ccc76)[C@H]5c5cccc(Cl)c5F)CC4)CCO3)cc21 (stereo partly drawn) [I-11]	> 8.30	< 10
Cn1c(=O)n(C2CCC(=O)NC2=O)c2ccc(CN3CCC(OC4CN(C(=O)[C@H]5CC[C@H](NC(=O)[C@@H]6NC7(CCCCC7)[C@@]7(C(=O)Nc8cc(Cl)ccc87)[C@H]6c6cccc(Cl)c6F)CC5)C4)CC3)cc21 (stereo partly drawn) [I-23]	> 8.30	< 10
Cn1c(=O)n(C2CCC(=O)NC2=O)c2ccc(CCCC3(C(=O)O)CCN(C[C@H]4CC[C@H](NC(=O)[C@@H]5NC6(CCCCC6)[C@@]6(C(=O)Nc7cc(Cl)ccc76)[C@H]5c5cccc(Cl)c5F)CC4)CC3)cc21 (stereo partly drawn) [I-38]	7.30 to 8.30	< 10
COc1cc2c(cc1OC(C)C)[C@H](c1ccc(Cl)cc1)N(c1ccc(N(C)C[C@H]3CC[C@H](N4CCN(CCc5cccc6c5n(C)c(=O)n6C5CCC(=O)NC5=O)CC4)CC3)cc1)C(=O)C2 (stereo partly drawn) [I-63]	7.30 to 8.30	< 10
Cn1c(=O)n(C2CCC(=O)NC2=O)c2ccc(CN3CCN(C[C@H]4CC[C@H](NC(=O)[C@@H]5NC6(CCCCC6)[C@@]6(C(=O)Nc7cc(Cl)ccc76)[C@H]5c5cccc(Cl)c5F)CC4)CC3)cc21 (stereo partly drawn) [I-69]	7.30 to 8.30	< 10
CN1CCN(C[C@H]2CC[C@H](NC(=O)[C@@H]3NC4(CCCCC4)[C@@]4(C(=O)Nc5cc(Cl)ccc54)[C@H]3c3cccc(Cl)c3F)CC2)C[C@H]1CCc1ccc2c(c1)n(C)c(=O)n2C1CCC(=O)NC1=O (stereo partly drawn) [I-1]	> 8.30	< 10
Cn1c(=O)n(C2CCC(=O)NC2=O)c2ccc(C3CCN(C[C@H]4CC[C@H](NC(=O)[C@@H]5NC6(CCCCC6)[C@@]6(C(=O)Nc7cc(Cl)ccc76)[C@H]5c5cccc(Cl)c5F)CC4)CC3(F)F)cc21 (stereo partly drawn) [I-52]	> 8.30	< 10
CN1[C@@H](C(=O)N[C@H]2CC[C@H](CN3CCC4(CC3)CN(CCc3ccc5c(c3)n(C)c(=O)n5C3CCC(=O)NC3=O)C4)CC2)[C@H](c2ccnc(Cl)c2F)[C@]2(C(=O)Nc3cc(Cl)ccc32)C12CCC(C)(C)CC2 (stereo partly drawn) [I-43]	> 8.30	< 10
Cn1c(=O)n(C2CCC(=O)NC2=O)c2ccc(C3CCN(C(=O)CCCN4CCC(NC(=O)[C@@H]5NC6(CCCCC6)[C@@]6(C(=O)Nc7cc(Cl)ccc76)[C@H]5c5cccc(Cl)c5F)CC4)CC3)cc21 (stereo partly drawn) [I-29]	7.30 to 8.30	10 to 100
CN1[C@@H](C(=O)Nc2ccc(CN3CCC(c4ccc5c(c4)n(C)c(=O)n5C4CCC(=O)NC4=O)CC3)cc2)[C@H](c2cccc(Cl)c2F)[C@]2(C(=O)Nc3cc(Cl)ccc32)C12CCCCC2 (stereo partly drawn) [I-28]	> 8.30	< 10
CC(C)[C@@H](CS(=O)(=O)C(C)C)N1C(=O)[C@@](C)(CC(=O)Nc2ccc(C(=O)N3CCN(CCCc4ccc5c(c4)n(C)c(=O)n5C4CCC(=O)NC4=O)CC3)cc2)C[C@H](c2cccc(Cl)c2)[C@H]1c1ccc(Cl)cc1 (stereo partly drawn) [I-9]	7.30 to 8.30	10 to 100
Cn1c(=O)n(C2CCC(=O)NC2=O)c2ccc(C3CCN(C[C@H]4CC[C@H](NC(=O)[C@@H]5NC6(CCCCC6)[C@@]6(C(=O)Nc7cc(Cl)ccc76)[C@H]5c5cccc(Cl)c5F)CC4)C[C@H]3F)cc21 (stereo partly drawn) [I-83]	< 6.30	10 to 100
Cn1c(=O)n(C2CCC(=O)NC2=O)c2ccc(N3CCN(CC4CCN(C(=O)[C@H]5CC[C@H](NC(=O)[C@@H]6NC7(CCCCC7)[C@@]7(C(=O)Nc8cc(Cl)ccc87)[C@H]6c6cccc(Cl)c6F)CC5)CC4)CC3)cc21 (stereo partly drawn) [I-15]	> 8.30	< 10

Reference: patent US20250034147A1, “MDM2 DEGRADERS AND USES THEREOF” (Kymera Therapeutics, Inc., priority 2021, published 2025)
